These results are taken from ChEMBL document CHEMBL2146463, “Apoptosis-inducing effects of distichamine and narciprimine, rare alkaloids of the plant family Amaryllidaceae” (Bioorg Med Chem Lett, 2012).

The IC50 is the midpoint of a concentration-inhibition curve.

Active and inactive are the calls of the source. The calls are words filed in the database; no cut-off is given here. Bounds are passed on as bounds.

The subject of test [1] is CCRF-CEM. Briefly: Cytotoxicity against human CEM cells after 72 hrs by Calcein AM assay. Format: functional, cell-based.
Test [2] has as its system K562. Briefly: Cytotoxicity against human K562 cells after 72 hrs by Calcein AM assay. Format: functional, cell-based. The following applies: K562, 72 h.
Test [3] relates to MCF7. As to the kind of experiment: Cytotoxicity against human MCF7 cells after 72 hrs by Calcein AM assay. Format: functional, cell-based. The following applies: MCF7, 72 h.
In test [4] the test system is HeLa. Briefly: Cytotoxicity against human HeLa cells after 72 hrs by Calcein AM assay. The test is classed as functional, cell-based.
Test [5] has as its system G-361. As to the kind of experiment: Cytotoxicity against human G361 cells after 72 hrs by Calcein AM assay. Format: functional, cell-based. The following applies: G-361, 72 h.
The test system of test [6] is BJ. Briefly: Cytotoxicity against human BJ cells after 72 hrs by Calcein AM assay.
A short description of test [7]: Induction of apoptosis in rat 5123TC cells after 48 hrs. The test is classed as functional. The following applies: read-out: ED50 (the source's name).
Test [8] can be described thus: Induction of apoptosis in rat 5123TC cells assessed as apoptotic index at 25 uM after 48 hrs. Format: functional.
Test [9] relates to MCF7. Briefly: Cytotoxicity against human MCF7 cells. Format: functional, cell-based.
Test [10] relates to CCRF-CEM. As to the kind of experiment: Induction of apoptosis in human CEM cells assessed increase in expression of p53 after 24 hrs by Western Blot analysis. The test is classed as functional, cell-based. (In general: Immunoblotting shows a protein as a band on a membrane.)
For test [11], the system named is CCRF-CEM. Briefly: Induction of apoptosis in human CEM cells assessed as decrease level of procaspase-3 at 10 uM after 24 hrs by Western Blot analysis. Format: functional, cell-based.
For test [12], the system named is CCRF-CEM. As to the kind of experiment: Induction of apoptosis in human CEM cells assessed as increase cleavage of PARP at 20 uM after 24 hrs by Western Blot analysis. Format: functional, cell-based.
Test [13] has as its system CCRF-CEM. Briefly: Cell cycle arrest in human CEM cells assessed as accumulation at sub-G1 phase at 1 to 20 uM after 24 hrs by FACS analysis relative to control. The test is classed as functional. For orientation: A flow cytometer gives signals particle by particle.
Test [14] deals with CCRF-CEM. As to the kind of experiment: Cell cycle arrest in human CEM cells assessed as increase accumulation at G2/M phase after 24 hrs by FACS analysis. Format: functional, cell-based.
For test [15], the system named is CCRF-CEM. As to the kind of experiment: Cell cycle arrest in human CEM cells assessed as decrease accumulation at G0/G1 phase at 1 to 20 uM after 24 hrs by FACS analysis. Format: functional, cell-based.
Test [16] relates to CCRF-CEM. Briefly: Cell cycle arrest in human CEM cells assessed as decrease accumulation at S phase at 1 to 20 uM after 24 hrs by FACS analysis. Format: functional, cell-based.
The subject of test [17] is CCRF-CEM. As to the kind of experiment: Induction of apoptosis in human CEM cells assessed as increase in activity of caspases-3/7 at 20 uM after 24 hrs by fluorescence analysis relative to control. Format: functional.
In test [18] the test system is CCRF-CEM. Briefly: Induction of apoptosis in human CEM cells assessed as increase cleavage of PARP at 10 uM after 24 hrs by Western Blot analysis. The test is classed as functional, cell-based.
Test [19] concerns CCRF-CEM. As to the kind of experiment: Induction of apoptosis in human CEM cells assessed as decrease level of procaspase-3 at 20 uM after 24 hrs by Western Blot analysis. Format: functional, cell-based.
The subject of test [20] is CCRF-CEM. As to the kind of experiment: Induction of apoptosis in human CEM cells assessed increase in expression of p53 at 10 uM after 24 hrs by Western Blot analysis. The test is classed as functional, cell-based.
Test [21] has as its system CCRF-CEM. As to the kind of experiment: Induction of apoptosis in human CEM cells assessed increase in expression of p53 at 20 uM after 24 hrs by Western Blot analysis. The test is classed as functional, cell-based.
Test [22] deals with CCRF-CEM. Briefly: Induction of apoptosis in human CEM cells assessed activity of Bcl-2 at 1 to 20 uM after 24 hrs by Western Blot analysis. The test is classed as functional, cell-based.
The test system of test [23] is CCRF-CEM. As to the kind of experiment: Induction of apoptosis in human CEM cells assessed decrease level of Mcl-1 at 20 uM after 24 hrs by Western Blot analysis. Format: functional, cell-based.
Test [24] has as its system CCRF-CEM. As to the kind of experiment: Induction of apoptosis in human CEM cells assessed as […] after 24 hrs by Western Blot analysis. Format: functional, cell-based.
Test [25] relates to CCRF-CEM. Briefly: Induction of apoptosis in human CEM cells assessed as decrease level of procaspase-3 after 24 hrs by Western Blot analysis. The test is classed as functional, cell-based.
For test [26], the system named is CCRF-CEM. Briefly: Induction of apoptosis in human CEM cells assessed decrease level of Mcl-1 at 1 to 20 uM after 24 hrs by Western Blot analysis. Format: functional, cell-based.
Test [27] concerns CCRF-CEM. Briefly: Induction of apoptosis in human CEM cells assessed as increase cleavage of PARP at 1 to 20 uM after 24 hrs by Western Blot analysis. The test is classed as functional, cell-based.
Test [28] concerns CCRF-CEM. Briefly: Induction of apoptosis in human CEM cells assessed as decrease level of procaspase-3 at 1 to 20 uM after 24 hrs by Western Blot analysis. Format: functional, cell-based.
The test system of test [29] is CCRF-CEM. As to the kind of experiment: Cell cycle arrest in human CEM cells assessed as accumulation at sub-G1 phase at 20 uM after 24 hrs by FACS analysis relative to control. The test is classed as functional, cell-based.
In test [30] the test system is NCI-H460. As to the kind of experiment: Cytotoxicity against human NCI-H460 cells by MTT assay. The test is classed as functional, cell-based.

Regarding `COc1c2c(cc3c1OCO3)[C@]13C=C[C@H](OC)C[C@H]1N(CC3)C2` [BUPHANIDRINE], the 50% inhibitory concentration (IC50) in test [1] was over 50 µM; in [2], over 50 µM; in test [3], over 50 µM; in [4], over 50 µM; in [5] it was over 50 µM; in test [6] it was 26.2 µM.
With `COc1ccc2c3c1O[C@H]1C[C@@H](O)C=C[C@@]31CCN(C)C2` [GALANTAMINE], the IC50 in [1], in test [2], in [3], in [4], in test [5] and in test [6] was over 50 µM throughout.
Turning to `CO[C@H]1C=C[C@@]23c4cc5c(cc4CN(C[C@@H]2O)[C@H]3C1)OCO5`, in test [7], the EC50 was 12.5 µM. The Activity in [8] was found to be 90%.
`O[C@H]1[C@H]2c3cc4c(cc3CN3CCC(=C[C@@H]1O)[C@H]23)OCO4` [LYCORINE]: in test [1], the Activity entry was “Dose-dependent effect”. Further, the half-inhibitory concentration (IC50) in test [1] was 1.6 µM; in [2], 3.6 µM; in test [3] it was 13 µM; in [4] it was 10.6 µM; in [5], 5 µM; in test [6], 1.9 µM.
On to `COc1ccc2c3c1O[C@H]1CC(=O)C=C[C@@]31CCN(C)C2` [NARWEDINE], for which the half-maximal inhibitory concentration (IC50) was 31.6 µM in test [1]; over 50 µM in test [2]; over 50 µM in test [3]; over 50 µM in [4]; over 50 µM in [5]; over 50 µM in test [6].
As to `CO[C@@H]1C=C[C@@]23c4cc5c(cc4CN(C[C@@H]2O)[C@H]3C1)OCO5` [(+)-HAEMANTHAMINE], the half-maximal inhibitory concentration (IC50) is 2.1 µM in [1]; 3.4 µM in test [2]; 8.1 µM in test [3]; 7 µM in test [4]; 3.7 µM in test [5]; 2.7 µM in test [6]. Moreover, in test [7], the EC50 turned out to be 15 µM. Also, the Activity in [8] is on record as 90%.
For `O=C1N[C@H]2[C@H](O)[C@H](O)[C@@H](O)[C@H](O)[C@@H]2c2cc3c(c(O)c21)OCO3` [PANCRATISTATIN], inhibition in test [9] was half-maximal at 0.071 µM (IC50).
As to `COc1ccc2c3c1O[C@H]1C[C@@H](O)CC[C@]31CCN(C)C2` [LYCORAMINE], the concentration for half-maximal inhibition (IC50) in test [1], in test [2], in test [3], in [4], in [5] and in test [6] was over 50 µM in each case.
In the case of `COc1c2c(cc3c1[C@@H](O)N1CC[C@]34[C@H]3O[C@H]3[C@H](OC)C[C@@H]14)OCO2`, the Activity in test [8] is reported as 25%.
For the molecule `COC1=CC(=O)[C@@]23CCN(Cc4c2cc2c(c4OC)OCO2)[C@@H]3C1` [DISTICHAMINE], the Activity entry in [10] is “Dose-dependent effect”; in test [13], 23.7%; in test [14] it was “Dose-dependent effect”; in test [24], “Dose-dependent effect”; in test [25], “Dose-dependent effect”. Besides, the IC50 in test [1] is 4.5 µM; in [2], 4.1 µM; in test [3], 2.3 µM; in [4] it was 2.2 µM; in test [5], 14.7 µM; in [6], 10.5 µM. The outcome in [11], in test [12], in [15], in [16], in [18] and in test [19] was Active. Moreover, the outcome in test [20], in test [21] and in [23] was Active. For the same molecule, the “fold change (FC)” value in test [17] was found to be 12.5. Also, in [22], the outcome was inactive.
In the case of `O=c1[nH]c2c(O)cccc2c2cc3c(c(O)c12)OCO3` [NARCIPRIMINE], the outcome in test [26], in [27], in test [28] and in test [22] was inactive. Moreover, the Activity result in test [10] and in [14] was “Dose-dependent effect” throughout. Moreover, the IC50 was 13.3 µM in test [1]; over 50 µM in [2]; over 50 µM in test [3]; over 50 µM in [4]; over 50 µM in test [5]; 7.9 µM in test [6]. In addition, the outcome in [15], in test [16] and in test [29] was Active. Further, the “fold change (FC)” value in test [17] is listed as 1.8.
With `CN[C@@H]1C[C@H]2O[C@@](C)([C@@H]1OC)n1c3ccccc3c3c4c(c5c6ccccc6n2c5c31)C(=O)NC4` [STAUROSPORINE], the IC50 in test [1] was 0.023 µM.
In the case of `COc1cc2c(cc1OC)[C@H]1[C@H]3C(=CC[C@H]1OC2=O)CCN3C` [HOMOLYCORINE], the half-maximal inhibitory concentration (IC50) was 15 µM in test [1]; 19.4 µM in test [2]; over 50 µM in [3]; over 50 µM in test [4]; 32.9 µM in test [5]; 20.8 µM in test [6].
In turn, `O=C1N[C@@H]2C(=C[C@H](O)[C@@H](O)[C@H]2O)c2cc3c(c(O)c21)OCO3` [NARCICLASINE] showed a half-maximal inhibitory concentration (IC50) in [9] of 0.01 µM.
On to `O=C(O[C@H]1[C@H](O)[C@@H](O)[C@@H](O)[C@@H]2NC(=O)c3c(cc4c(c3O)OCO4)[C@H]21)c1ccccc1` [PHENPANSTATIN], for which the half-maximal inhibitory concentration (IC50) in test [30] amounted to 0.00023 µM.
